# Reference: PubChem BioAssay (NCI)
#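 96-well plates; 48 h exposure; 5 concentrations. Endpoints by linear interpolation between flanking doses. Not reached: highest tested concentration assigned. At the GI50, growth is halved. TGI denotes the concentration required for complete inhibition of growth.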
# Key:
# Assay in all cases: NCI anticancer screen, dose series, 48 h
# HCT-15 colon = tested on: HCT-15 colon
# BT-549 breast = tested on: BT-549 breast
# NCI-H460 lung = tested on: NCI-H460 lung
# MDA-MB-231 breast = tested on: MDA-MB-231 breast
# U251 CNS = tested on: U251 CNS
# MALME-3M melanoma = tested on: MALME-3M melanoma
# CCRF-CEM leukemia = tested on: CCRF-CEM leukemia
# PC-3 prostate = tested on: PC-3 prostate
# SK-MEL-28 melanoma = tested on: SK-MEL-28 melanoma
# RPMI-8226 leukemia = tested on: RPMI-8226 leukemia
# HS 578T breast = tested on: HS 578T breast
# NCI-H23 lung = tested on: NCI-H23 lung
# 786-0 renal = tested on: 786-0 renal
# HL-60(TB) leukemia = tested on: HL-60(TB) leukemia
# HCC-2998 colon = tested on: HCC-2998 colon
# SF-539 CNS = tested on: SF-539 CNS
# HT29 colon = tested on: HT29 colon
# UACC-257 melanoma = tested on: UACC-257 melanoma
# SNB-75 CNS = tested on: SNB-75 CNS
# MDA-MB-435 = tested on: MDA-MB-435
# IGROV1 ovarian = tested on: IGROV1 ovarian
# SF-268 CNS = tested on: SF-268 CNS
# M14 melanoma = tested on: M14 melanoma
# SF-295 CNS = tested on: SF-295 CNS
# HOP-92 NSCLC = tested on: HOP-92 NSCLC
# SW-620 colon = tested on: SW-620 colon
# NCI/ADR-RES ovarian = tested on: NCI/ADR-RES ovarian
# COLO 205 colon = tested on: COLO 205 colon
# SNB-19 CNS = tested on: SNB-19 CNS
# SR leukemia = tested on: SR leukemia
# RXF 393 renal = tested on: RXF 393 renal
# HOP-62 NSCLC = tested on: HOP-62 NSCLC
# CAKI-1 renal = tested on: CAKI-1 renal
# HCT-116 colon = tested on: HCT-116 colon
# OVCAR-5 ovarian = tested on: OVCAR-5 ovarian
# NCI-H522 lung = tested on: NCI-H522 lung
# SK-MEL-2 melanoma = tested on: SK-MEL-2 melanoma
# OVCAR-3 ovarian = tested on: OVCAR-3 ovarian
# TK-10 renal = tested on: TK-10 renal
# KM12 colon = tested on: KM12 colon
# A549 NSCLC = tested on: A549 NSCLC
# K-562 leukemia = tested on: K-562 leukemia
# SK-MEL-5 melanoma = tested on: SK-MEL-5 melanoma
# DU-145 prostate = tested on: DU-145 prostate
# UO-31 renal = tested on: UO-31 renal
# MCF7 breast = tested on: MCF7 breast
# SK-OV-3 ovarian = tested on: SK-OV-3 ovarian
# OVCAR-4 ovarian = tested on: OVCAR-4 ovarian
# NCI-H226 lung = tested on: NCI-H226 lung
# OVCAR-8 ovarian = tested on: OVCAR-8 ovarian
# T-47D breast = tested on: T-47D breast
# ACHN renal = tested on: ACHN renal
# A498 renal = tested on: A498 renal
# MOLT-4 leukemia = tested on: MOLT-4 leukemia
# UACC-62 melanoma = tested on: UACC-62 melanoma
# SN12C renal = tested on: SN12C renal
# LOX IMVI melanoma = tested on: LOX IMVI melanoma
smiles,measurement,setting,value
COc1ccc(OC)c(N(CCN2C(=O)c3ccccc3C2=O)C(=O)CCl)c1,GI50,HCT-15 colon,11.6 µM
same,TGI,HCT-15 colon,> 54.6 µM
same,GI50,BT-549 breast,17.9 µM
same,TGI,BT-549 breast,46.7 µM
same,GI50,NCI-H460 lung,13.5 µM
same,TGI,NCI-H460 lung,48.5 µM
same,GI50,MDA-MB-231 breast,1.24 µM
same,TGI,MDA-MB-231 breast,7.51 µM
same,GI50,U251 CNS,3.74 µM
same,TGI,U251 CNS,17.8 µM
same,GI50,MALME-3M melanoma,0.706 µM
same,TGI,MALME-3M melanoma,3.16 µM
same,GI50,CCRF-CEM leukemia,0.229 µM
same,TGI,CCRF-CEM leukemia,0.542 µM
same,GI50,PC-3 prostate,14 µM
same,TGI,PC-3 prostate,67 µM
same,GI50,SK-MEL-28 melanoma,23.4 µM
same,TGI,SK-MEL-28 melanoma,91.2 µM
same,GI50,RPMI-8226 leukemia,2.06 µM
same,TGI,RPMI-8226 leukemia,9.34 µM
same,GI50,HS 578T breast,13.7 µM
same,TGI,HS 578T breast,68.9 µM
same,GI50,NCI-H23 lung,2.26 µM
same,TGI,NCI-H23 lung,12.3 µM
same,GI50,786-0 renal,0.901 µM
same,TGI,786-0 renal,3.1 µM
same,GI50,HL-60(TB) leukemia,0.202 µM
same,TGI,HL-60(TB) leukemia,0.411 µM
same,GI50,HCC-2998 colon,20.4 µM
same,TGI,HCC-2998 colon,56 µM
same,GI50,SF-539 CNS,1.13 µM
same,TGI,SF-539 CNS,2.68 µM
same,GI50,HT29 colon,0.497 µM
same,TGI,HT29 colon,2.15 µM
same,GI50,UACC-257 melanoma,20.7 µM
same,TGI,UACC-257 melanoma,88 µM
same,GI50,SNB-75 CNS,0.288 µM
same,TGI,SNB-75 CNS,1.22 µM
same,GI50,MDA-MB-435,15.6 µM
same,TGI,MDA-MB-435,66.7 µM
same,GI50,IGROV1 ovarian,0.121 µM
same,TGI,IGROV1 ovarian,0.299 µM
same,GI50,SF-268 CNS,0.931 µM
same,TGI,SF-268 CNS,3.2 µM
same,GI50,M14 melanoma,24.6 µM
same,TGI,M14 melanoma,> 100 µM
same,GI50,SF-295 CNS,1.09 µM
same,TGI,SF-295 CNS,2.44 µM
same,GI50,HOP-92 NSCLC,0.181 µM
same,TGI,HOP-92 NSCLC,0.48 µM
same,GI50,SW-620 colon,15.3 µM
same,TGI,SW-620 colon,> 58.5 µM
same,GI50,NCI/ADR-RES ovarian,3.31 µM
same,TGI,NCI/ADR-RES ovarian,> 19.6 µM
same,GI50,COLO 205 colon,13.5 µM
same,TGI,COLO 205 colon,29.3 µM
same,GI50,SNB-19 CNS,30.4 µM
same,TGI,SNB-19 CNS,> 100 µM
same,GI50,SR leukemia,0.119 µM
same,GI50,RXF 393 renal,0.615 µM
same,TGI,RXF 393 renal,12.6 µM
same,GI50,HOP-62 NSCLC,0.379 µM
same,TGI,HOP-62 NSCLC,1.97 µM
same,GI50,CAKI-1 renal,0.482 µM
same,TGI,CAKI-1 renal,2 µM
same,GI50,HCT-116 colon,17.7 µM
same,TGI,HCT-116 colon,59.5 µM
same,GI50,OVCAR-5 ovarian,1.42 µM
same,TGI,OVCAR-5 ovarian,15.8 µM
same,GI50,NCI-H522 lung,0.0631 µM
same,TGI,NCI-H522 lung,0.157 µM
same,GI50,SK-MEL-2 melanoma,12.4 µM
same,TGI,SK-MEL-2 melanoma,35.1 µM
same,GI50,OVCAR-3 ovarian,0.641 µM
same,TGI,OVCAR-3 ovarian,1.62 µM
same,GI50,TK-10 renal,16.9 µM
same,TGI,TK-10 renal,39.9 µM
same,GI50,KM12 colon,0.617 µM
same,TGI,KM12 colon,5.17 µM
same,GI50,A549 NSCLC,9.35 µM
same,TGI,A549 NSCLC,44.7 µM
same,GI50,K-562 leukemia,21.3 µM
same,TGI,K-562 leukemia,> 70.4 µM
same,GI50,SK-MEL-5 melanoma,16 µM
same,TGI,SK-MEL-5 melanoma,35.3 µM
same,GI50,DU-145 prostate,6.09 µM
same,TGI,DU-145 prostate,37.7 µM
same,GI50,UO-31 renal,0.0667 µM
same,TGI,UO-31 renal,0.154 µM
same,GI50,MCF7 breast,14.2 µM
same,TGI,MCF7 breast,43 µM
same,GI50,SK-OV-3 ovarian,0.688 µM
same,TGI,SK-OV-3 ovarian,2.05 µM
same,GI50,OVCAR-4 ovarian,0.23 µM
same,TGI,OVCAR-4 ovarian,0.554 µM
same,GI50,NCI-H226 lung,30.9 µM
same,TGI,NCI-H226 lung,> 89.2 µM
same,GI50,OVCAR-8 ovarian,7.5 µM
same,TGI,OVCAR-8 ovarian,46.3 µM
same,GI50,T-47D breast,18.9 µM
same,TGI,T-47D breast,54.4 µM
same,GI50,ACHN renal,0.831 µM
same,TGI,ACHN renal,4.85 µM
same,GI50,A498 renal,6.81 µM
same,TGI,A498 renal,25.4 µM
same,GI50,MOLT-4 leukemia,10.3 µM
same,TGI,MOLT-4 leukemia,37.7 µM
same,GI50,UACC-62 melanoma,6.24 µM
same,TGI,UACC-62 melanoma,21.6 µM
same,GI50,SN12C renal,22.7 µM
same,TGI,SN12C renal,> 100 µM
same,GI50,LOX IMVI melanoma,0.191 µM
same,TGI,LOX IMVI melanoma,0.406 µM
